Measured values published in the Deep4Chem optical property database.
Values belong to the compound of their own block, whether it stands above or below them.

Experiment: solvent given as SMILES

SMILES: CCCCCCC1(CCCCCC)c2cc(-c3ccc(-c4ccc(-c5ccc(-c6ccc7c(c6)C(CCCCCC)(CCCCCC)c6cc(-n8c9ccccc9c9ccccc98)ccc6-7)s5)c5nsnc45)s3)ccc2-c2ccc(-n3c4ccccc4c4ccccc43)cc21
emission maximum (in ClCCl): 611 nm

SMILES: N#Cc1nc2c3ccc(-c4ccc(N(c5ccccc5)c5ccccc5)cc4)cc3c3cc(-c4ccc(N(c5ccccc5)c5ccccc5)cc4)ccc3c2nc1C#N
emission maximum (in C1COCCO1): 633.42 nm
emission maximum (in CCCCCC): 503.54 nm
emission maximum (in Cc1ccccc1): 588 nm
emission maximum (in ClC(Cl)Cl): 721.14 nm
emission maximum (in O=P(c1ccccc1)(c1ccccc1)c1cccc(-c2cc(-n3c4ccccc4c4ccccc43)cc(-n3c4ccccc4c4ccccc43)c2)n1): 628 nm

SMILES: CCC(C)(C)c1ccc2c(c1)C(CCOC)(CCOC)c1cc(-c3ccc4c(c3)C(CCOC)(CCOC)c3cc(C(C)(C)CC)ccc3-4)ccc1-2
emission maximum (in C1CCCCC1): 371 nm

SMILES: CC1(C)C(/C=C/c2cc3ccc(O)cc3oc2=O)=[N+](CCCS(=O)(=O)[O-])c2ccc3c(S(=O)(=O)O)cc(S(=O)(=O)O)cc3c21
emission maximum (in CCO): 659 nm
emission maximum (in CS(C)=O): 625 nm
emission maximum (in O): 643 nm

SMILES: c1ccc(-c2nc3c(ccc4[nH]ccc43)o2)cc1
emission maximum (in C1CCCCC1): 372 nm
emission maximum (in C1COCCO1): 409 nm
emission maximum (in CC#N): 427 nm
emission maximum (in CO): 437 nm
emission maximum (in Cc1ccccc1): 390 nm
emission maximum (in O): 459 nm

SMILES: CCCCOc1ccc(-c2cc3c(o2)c(-c2ccc(OCCCC)cc2)c2n3[B-](F)(F)[N+]3=Cc4c(-c5ccc(OCCCC)cc5)c5oc(-c6ccc(OCCCC)cc6)cc5n4[B-](F)(F)[N+]3=C2)cc1
emission maximum (in C1CCOC1): 659 nm
emission maximum (in CN(C)C=O): 667 nm
emission maximum (in CS(C)=O): 672 nm
emission maximum (in Cc1ccccc1): 660 nm
emission maximum (in ClC(Cl)Cl): 660 nm
emission maximum (in ClCCl): 661 nm

SMILES: CCCCCCC(CCCCCC)N1C(=O)c2cccc3c(-c4ccc(OC)c5ccccc45)ccc(c23)C1=O
emission maximum (in CCCCCC): 427.1 nm
emission maximum (in CCCCCCCCCCCCCC): 431.7 nm
emission maximum (in CCCCCCCCCCCO): 532.4 nm
emission maximum (in CCCCO): 576.8 nm
emission maximum (in CN(C)C=O): 581.8 nm
emission maximum (in Cc1ccccc1): 478 nm
emission maximum (in ClC(Cl)Cl): 509.7 nm

SMILES: ClC(Cl)=C1c2ccccc2C(C2(Cl)c3ccccc3C(=C(Cl)Cl)c3ccccc32)c2ccccc21 (stereo not drawn)
emission maximum (in C1CCCCC1): 425.81 nm
emission maximum (in CCCCCO): 442.64 nm
emission maximum (in CCCCO): 446.26 nm
emission maximum (in CCCO): 443.26 nm
emission maximum (in CCO): 447.14 nm
emission maximum (in CO): 449.43 nm

SMILES: CCN(CC)c1ccc(-c2ccc(-c3nc(C#N)c4ccccc4n3)s2)cc1
emission maximum (in CC#N): 539 nm
emission maximum (in Cc1ccccc1): 471 nm

SMILES: COc1ccc2c3c(c4ccc(OC)cc4c2c1)C(C)(C)c1cc(-c2ccccc2)ccc1-3
emission maximum (in C1CCCCC1): 392 nm

SMILES: CCC1=C(C)C2=C(c3c4ccccc4cc4ccccc34)c3c(C)c(CC)c(C)n3[B-](F)(F)[N+]2=C1C
emission maximum (in CC#N): 537 nm
emission maximum (in CCCCCC): 539 nm
emission maximum (in CCO): 539 nm
emission maximum (in CN(C)C=O): 541 nm
emission maximum (in Cc1ccccc1): 544 nm
emission maximum (in ClCCl): 543 nm

SMILES: CCN1c2ccc(/C=N/Nc3ccccn3)cc2Sc2cc(-c3ccc(OC)cc3)ccc21
emission maximum (in C1CCOC1): 491 nm
emission maximum (in CS(C)=O): 503 nm
emission maximum (in Cc1ccccc1): 484 nm
emission maximum (in ClCCl): 497 nm

SMILES: COC(=O)C(Cc1ccc2oc(-c3ccc(Nc4ccccc4)cc3)nc2c1)NC(=O)OC(C)(C)C (stereo not drawn)
emission maximum (in C1CCCCC1): 382 nm
emission maximum (in C1CCOC1): 419.01 nm
emission maximum (in C1COCCO1): 410.51 nm
emission maximum (in CC1CCCO1): 425.01 nm
emission maximum (in CC1COC(=O)O1): 457.5 nm
emission maximum (in CC#N): 452 nm
emission maximum (in CC(C)=O): 439.5 nm
emission maximum (in CC(C)CC(C)(C)C): 384 nm
emission maximum (in CC(C)CO): 438 nm
emission maximum (in CC(C)O): 440.51 nm
emission maximum (in CC(C)OC(C)C): 426 nm
emission maximum (in CC(O)CO): 438 nm
emission maximum (in CCC(C)CC): 382.98 nm
emission maximum (in CCCCC): 382 nm
emission maximum (in CCCCCC): 383.49 nm
emission maximum (in CCCCCCCCC): 384.5 nm
emission maximum (in CCCCCCCCCC): 385 nm
emission maximum (in CCCCCCCO): 434.5 nm
emission maximum (in CCCCCCO): 429 nm
emission maximum (in CCCCCO): 424 nm
emission maximum (in CCCCO): 441.5 nm
emission maximum (in CCO): 453.49 nm
emission maximum (in CCOC(C)=O): 412 nm
emission maximum (in CCOCC): 409.5 nm
emission maximum (in CN(C)C=O): 447.51 nm
emission maximum (in CO): 457 nm
emission maximum (in COCCOC): 440.01 nm
emission maximum (in CS(C)=O): 459.5 nm
emission maximum (in Cc1ccccc1): 401.49 nm
emission maximum (in Cc1ccccc1C): 401.49 nm
emission maximum (in ClC(Cl)Cl): 420.01 nm
emission maximum (in ClCCl): 415.51 nm
emission maximum (in NC=O): 447.01 nm
emission maximum (in OC1CCCCC1): 440.01 nm
emission maximum (in OCCO): 443.01 nm
emission maximum (in c1ccccc1): 398.5 nm

SMILES: CCOC(=O)c1ccccc1-c1c2ccc(=[N+](CC)CC)cc-2oc2c1c(=O)oc1cc(N(CC)CC)ccc12
emission maximum (in CCO): 642 nm
emission maximum (in ClC(Cl)Cl): 640 nm
emission maximum (in O): 652 nm

SMILES: CCCCn1c2ccc(-c3ccccc3)cc2c2ccc3c4cc(-c5ccccc5)ccc4n(CCCC)c3c21
emission maximum (in ClC(Cl)Cl): 414 nm

SMILES: CCCCCCCCCCCCN1C(=O)c2ccc3c4ccc5c6c(ccc(c7ccc(c2c37)C1=O)c64)C(=O)N(CCCCCCCCCCCC)C5=O
emission maximum (in CN(C)C=O): 536 nm

SMILES: CC(=O)Nc1ccc2c3c(cccc13)C(=O)c1ccccc1-2
emission maximum (in CC#N): 539.96 nm
emission maximum (in CC(C)=O): 526.04 nm
emission maximum (in CC(C)O): 567.86 nm
emission maximum (in CCCCOCCCC): 507.1 nm
emission maximum (in CCOC(C)=O): 520.02 nm
emission maximum (in CCOCC): 518.13 nm
emission maximum (in CO): 573.07 nm
emission maximum (in Cc1ccccc1): 516 nm
emission maximum (in Clc1ccccc1): 520.02 nm
emission maximum (in N#Cc1ccccc1): 527.98 nm
emission maximum (in O=C1CCCCC1): 526.87 nm

SMILES: CC1=CC(/C=C/c2ccc(OCCCN=[N+]=[N-])cc2)=[N+]2C1=C(c1ccc(N3CCCCC3)cc1)c1c(C)cc(C)n1[B-]2(F)F
emission maximum (in CO): 586 nm

Continued, values first:

emission maximum (in C1COCCO1): 392 nm
emission maximum (in CC#N): 405 nm
emission maximum (in CO): 424 nm
emission maximum (in ClCCl): 402 nm
SMILES: CCCCNC(=O)c1nc2c(N(C)C)nc(N(C)C)nc2n1Cc1ccccc1

emission maximum (in ClCCl): 415 nm
SMILES: CC(C)(C)NC(=O)c1cccc2ccc3c4ccc(Cl)cc4c4cc(Cl)ccc4c3c12

emission maximum (in CN(C)C=O): 534 nm
SMILES: NCCCCCCCCCCCCN1C(=O)c2ccc3c4ccc5c6c(ccc(c7ccc(c2c37)C1=O)c64)C(=O)NC5=O

emission maximum (in CO): 601 nm
emission maximum (in ClC(Cl)Cl): 603 nm
SMILES: Cc1nc2c(ccc3c2sc(/C=C/c2ccc(N(CCO)CCO)cc2)[n+]3C)s1

emission maximum (in O): 380 nm
SMILES: Nc1ncc2nc[nH]c2n1

emission maximum (in CCO): 508 nm
SMILES: CC1(C)Nc2cc3nc4cc(Br)c(Br)cc4nc3cc2N1

emission maximum (in ClCCl): 460 nm
SMILES: CCN(CC)c1ccc2cc(C#N)c(=O)oc2c1

emission maximum (in CS(C)=O): 738 nm
SMILES: COc1ccc(-c2c3nc(cc4ccc([nH]4)c(-c4ccc(OC)c(OCC(=O)O)c4)c4nc(cc5ccc2[nH]5)CC4)CC3)cc1OCC(=O)O

emission maximum (in ClCCl): 428 nm
SMILES: CCOC(=O)c1c(-c2cc3cc4c(cc3oc2=O)OC(C)(C)CC4)nn(-c2cccc(C)c2)c1C(=O)OCC

emission maximum (in C1CCCCC1): 438 nm
emission maximum (in C1CCOC1): 438 nm
emission maximum (in C1COCCO1): 437 nm
emission maximum (in CC#N): 398 nm
emission maximum (in CCOC(C)=O): 439 nm
emission maximum (in CN(C)C=O): 385 nm
emission maximum (in CO): 390 nm
emission maximum (in ClC(Cl)Cl): 442 nm
SMILES: Cc1cccc(Nc2ccccc2C(=O)O)c1C

emission maximum (in ClC(Cl)Cl): 496 nm
SMILES: F[B-]1(F)OC(c2ccc(N3CCCC3)cc2)=Cc2cccc[n+]21
